Tests used:
[1] = system: E. coli Top10; experiment: MIC determination by microdilution, E. coli Top10 without β-lactamase (None); format: cell-based; conditions: Escherichia coli; Cefamandole alone; E. coli Top10, β-lactamase None; read-out: MIC of β-lactam, inhibitor None
Description: (§1) Plasmid and strain construction. For antibiotic susceptibility testing, the R-lactamase genes were cloned into the vector pTRC-99k, which is a derivative of pTRC99a (Pharmacia) obtained by replacing the β-lactamase resistance gene by a kanamycin resistance gene (Km, lacl, pTRC promoter, oriVcolEl; D. Mengin-Lecreulx, unpublished). Recombinant plasmids were introduced by electrotransformation into Escherichia coli Top10. For β-lactamase production, fragments of the β-lactamase genes encoding soluble enzymes, i.e. devoid of the signal peptides, were cloned into the vector pET-TEV generating translational fusions with a vector-encoded N-terminal 6×His Tag followed by a TEV cleavage site ([…]) (1).
(§2) MIC determination. MICs of β-lactams were determined by the microdilution method in MH broth according to Clinical and Laboratory Standards Institute (CLSI) recommendations (12). Diazabicyclooctane were used at a fixed concentration of 15 μM (4 μg/ml for avibactam). Clavulanate was tested at 4 μg/ml. IPTG (500 μM) was added to the microdilution plates to induce production of the -lactamase. The precultures were grown in BHI broth containing IPTG (500 μM) and kanamycin (50 μg/ml) for plasmid maintenance. Reported MICs are the medians from five biological repeats obtained in two independent experiments.

[2] = system: E. coli Top10 producing TEM-1; experiment: MIC determination by microdilution, E. coli Top10 producing TEM-1; format: cell-based; conditions: Escherichia coli, read-out: MIC of β-lactam, inhibitor None
Description: as §1, §2

## Cn1nnnc1SCC1=C(C(=O)O)N2C(=O)[C@@H](NC(=O)[C@H](O)c3ccccc3)[C@H]2SC1 [Cefamandole]
[1]
  MIC: 2 µg/mL
[2]
  MIC: > 2050 µg/mL

Reference: patent US20210300926A1, “NEW BETA-LACTAMASE INHIBITORS TARGETING GRAM NEGATIVE BACTERIA” (priority 2017, published 2021)
